From patent US7420001B2 (Wyeth, priority 2003, dated 2008)
Like-named read-outs stand apart in the source and are kept apart here.

Legend:
MMP-13 = target: T1, MMP-13 (Homo sapiens, UniProt P45452); assay: In-vitro fluorescence assay of MMP-13 activity; assay type: biochemical
T1 construct: made in house

MMP-2 = target: T2, MMP-2 (Homo sapiens, UniProt P08253); assay: In-vitro fluorescence assay of MMP-2 activity; assay type: biochemical; conditions: recombinant human MMP-2; read-out: MMP-2 IC50
T2 construct: purchased Oncogene Research Products (Calbiochem) PF023
T2 sequence (P08253 110-660): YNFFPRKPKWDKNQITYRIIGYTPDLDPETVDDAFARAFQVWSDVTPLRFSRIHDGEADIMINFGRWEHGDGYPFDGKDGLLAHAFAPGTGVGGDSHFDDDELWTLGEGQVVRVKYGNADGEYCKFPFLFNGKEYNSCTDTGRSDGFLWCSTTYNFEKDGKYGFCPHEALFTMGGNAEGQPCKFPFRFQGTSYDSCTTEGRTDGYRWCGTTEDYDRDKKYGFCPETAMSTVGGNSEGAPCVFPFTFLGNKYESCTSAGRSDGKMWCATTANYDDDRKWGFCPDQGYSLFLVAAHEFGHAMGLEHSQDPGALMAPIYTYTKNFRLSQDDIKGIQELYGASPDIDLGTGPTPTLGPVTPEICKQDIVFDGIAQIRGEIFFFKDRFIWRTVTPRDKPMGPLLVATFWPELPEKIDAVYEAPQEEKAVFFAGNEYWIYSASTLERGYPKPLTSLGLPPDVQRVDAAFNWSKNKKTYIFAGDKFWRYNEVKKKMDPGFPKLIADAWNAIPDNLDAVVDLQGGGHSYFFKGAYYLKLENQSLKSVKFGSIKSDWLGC

[1] = recombinant human catalytic domain of MMP-13, read-out: MMP-13 IC50
[2] = MMP-13 IC50, recombinant human catalytic domain of MMP-13

| Compound | IC50 (MMP-13; [1]) [nM] | IC50 (MMP-2) [nM] | IC50 (MMP-13; [2]) [nM] |
| --- | --- | --- | --- |
| C=Cc1cccc2oc(C(=O)Nc3ccc(-c4ccc(S(=O)(=O)N[C@H](C(=O)O)C(C)C)cc4)cc3)c(C)c12 [Example 96, N-[(4′-{[(3-methyl-4-vinyl-1-benzofuran-2-yl)carbonyl]amino}-1,1′-biphenyl-4-yl)sulfonyl]-L-valine] | 4.4 | 625 |  |
| Cc1c(C(=O)Nc2ccc(-c3ccc(S(=O)(=O)N(C)[C@H](C(=O)O)C(C)C)cc3)cc2)oc2cccc(C(O)CO)c12 (stereo partly drawn) [Example 99, N-{[4′-({[4-(1,2-dihydroxyethyl)-3-methyl-1-benzofuran-2-yl]carbonyl}amino)-1,1′-biphenyl-4-yl]sulfonyl}-N-methyl-L-valine] | 70 | 13200 |  |
| COCc1cccc2oc(C(=O)Nc3ccc(-c4ccc(S(=O)(=O)N[C@H](C(=O)O)C(C)C)cc4)cc3)c(C)c12 [Example 100, N-{[4′-({[4-(methoxymethyl)-3-methyl-1-benzofuran-2-yl]carbonyl}amino)-1,1′-biphenyl-4-yl]sulfonyl}-L-valine] | 2.6 | 2400 |  |
| COCCc1cccc2oc(C(=O)Nc3ccc(-c4ccc(S(=O)(=O)N[C@H](C(=O)O)C(C)C)cc4)cc3)c(C)c12 [Example 102, N-{[4′-({[4-(2-methoxyethyl)-3-methyl-1-benzofuran-2-yl]carbonyl}amino)-1,1′-biphenyl-4-yl]sulfonyl}-L-valinate] | 5.7 | 1520 |  |
| CCCOc1cccc2oc(C(=O)Nc3ccc(-c4ccc(S(=O)(=O)N[C@H](C(=O)O)C(C)C)cc4)cc3)c(C)c12 [Example 107, (S)-3-Methyl-2-{4′-[(3-methyl-4-propoxy-benzofuran-2-carbonyl)-amino]-biphenyl-4-sulfonylamino}-butyric acid] | 11 | 4220 |  |
| Cc1c(C(=O)Nc2ccc(-c3ccc(S(=O)(=O)N[C@H](C(=O)O)C(C)C)cc3)cc2)oc2cccc(OC(C)C)c12 [Example 108, (S)-2-{4′-[(4-Isopropoxy-3-methyl-benzofuran-2-carbonyl)-amino]-biphenyl-4-sulfonylamino}-3-methyl-butyric acid] | 13 | 4290 |  |
| Cc1c(C(=O)Nc2ccc(-c3ccc(S(=O)(=O)N[C@H](C(=O)O)C(C)C)cc3)cc2)oc2cccc(-c3ccncc3)c12 [Example 112, (S)-3-Methyl-2-{4′-[(3-methyl-4-pyridin-4-yl-benzofuran-2-carbonyl)-amino]-biphenyl-4-sulfonylamino}-butyric acid] | 8.5 | 2670 |  |
| Cc1c(C(=O)Nc2ccc(-c3ccc(S(=O)(=O)N[C@H](C(=O)O)C(C)C)cc3)cc2)oc2cccc(N3CCOCC3)c12 [Example 114, (S)-3-methyl-2-{4′-[(3-methyl-4-morpholin-4-yl-benzofuran-2-carbonyl)-amino]-biphenyl-4-sulfonylamino}-butyric acid] |  | 1630 | 32 |
| Cc1c(C(=O)Nc2ccc(-c3ccc(S(=O)(=O)N[C@H](C(=O)O)C(C)C)cc3)cc2)oc2ccc(Cl)c(OC(C)C)c12 [Example 115, (S)-2-{4′-[(5-Chloro-4-isopropoxy-3-methyl-benzofuran-2-carbonyl)-amino]-biphenyl-4-sulfonylamino}-3-methyl-butyric acid] | 11 | 3010 |  |
| COc1c(Cl)cc(Cl)c2oc(C(=O)Nc3ccc(-c4ccc(S(=O)(=O)N[C@H](C(=O)O)C(C)C)cc4)cc3)c(C)c12 [Example 117, (S)-2-{4′-[(5,7-Dichloro-4-methoxy-3-methyl-benzofuran-2-carbonyl)-amino]-biphenyl-4-sulfonylamino}-3-methyl-butyric acid] | 199 | 20000 |  |
| COc1c(I)ccc2oc(C(=O)Nc3ccc(-c4ccc(S(=O)(=O)N[C@H](C(=O)O)C(C)C)cc4)cc3)c(C)c12 [Example 120, (S)-2-{4′-[(5-Iodo-4-methoxy-3-methyl-benzofuran-2-carbonyl)-amino]-biphenyl-4-sulfonylamino}-3-methyl-butyric acid] | 2.1 | 1370 |  |
| CC(=O)c1ccc2oc(C(=O)Nc3ccc(-c4ccc(S(=O)(=O)N[C@H](C(=O)O)C(C)C)cc4)cc3)c(C)c2c1O [Example 123, (S)-2-{4′-[(5-Acetyl-4-hydroxy-3-methyl-benzofuran-2-carbonyl)-amino]-biphenyl-4-sulfonylamino}-3-methyl-butyric acid] | 3.2 | 63 |  |
| COc1c(C#N)ccc2oc(C(=O)Nc3ccc(-c4ccc(S(=O)(=O)N[C@H](C(=O)O)C(C)C)cc4)cc3)c(C)c12 [Example 124, (S)-2-{4′-[(5-Cyano-4-methoxy-3-methyl-benzofuran-2-carbonyl)-amino]-biphenyl-4-sulfonylamino}-3-methyl-butyric acid] | 3 | 522 |  |
| COc1c(C)ccc2oc(C(=O)Nc3ccc(-c4ccc(S(=O)(=O)N[C@H](C(=O)O)C(C)C)cc4)cc3)c(C)c12 [Example 125, (S)-2-{4′-[(5-Methyl-4-methoxy-3-methyl-benzofuran-2-carbonyl)-amino]-biphenyl-4-sulfonylamino}-3-methyl-butyric acid] | 4.9 | 1610 |  |
| CC(C)[C@H](NS(=O)(=O)c1ccc(-c2ccc(NC(=O)c3nc4cc(Cl)ccc4s3)cc2)cc1)C(=O)O [Example 130, (S)-3-Methyl-2-{4′-[(5-chloro-benzothiazole-2-carbonyl)-amino]-biphenyl-4-sulfonylamino}-butyric acid] | 2 | 25.9 |  |
| COc1c(Cl)ccc2oc(COc3ccc(-c4ccc(S(=O)(=O)N[C@H](C(=O)O)C(C)C)cc4)cc3)c(C)c12 [Example 142, L-2-[4′-(5-Chloro-4-methoxy-3-methylbenzofuran-2-ylmethoxy)-biphenyl-4-sulfonylamino]-3-methyl butyric acid] | 2.1 | 130 |  |

Now from value to compound:

| IC50 (MMP-13; [1]) [nM] | IC50 (MMP-2) [nM] | IC50 (MMP-13; [2]) [nM] | Compound |
| --- | --- | --- | --- |
| 14 | 2860 |  | Cc1c(C(=O)Nc2ccc(-c3ccc(S(=O)(=O)N[C@H](C(=O)O)C(C)C)cc3)cc2)oc2cccc(C(O)CO)c12 (stereo partly drawn) [Example 97, N-{[4′-({[4-(1,2-dihydroxyethyl)-3-methyl-1-benzofuran-2-yl]carbonyl}amino)-1,1′-biphenyl-4-yl]sulfonyl}-L-valine] |
| 84.1 | 890 |  | C=Cc1cccc2oc(C(=O)Nc3ccc(-c4ccc(S(=O)(=O)N(C)[C@H](C(=O)O)C(C)C)cc4)cc3)c(C)c12 [Example 98, N-methyl-N-[(4′-{[(3-methyl-4-vinyl-1-benzofuran-2-yl)carbonyl]amino}-1,1′-biphenyl-4-yl)sulfonyl]-L-valine] |
| 5.8 | 2000 |  | COC(C)c1cccc2oc(C(=O)Nc3ccc(-c4ccc(S(=O)(=O)N[C@H](C(=O)O)C(C)C)cc4)cc3)c(C)c12 (stereo partly drawn) [Example 101, N-{[4′-({[4-(1-methoxyethyl)-3-methyl-1-benzofuran-2-yl]carbonyl}amino)-1,1′-biphenyl-4-yl]sulfonyl}-L-valine] |
| 3.9 | 78.4 |  | CC(C)Oc1cccc2oc(C(=O)Nc3ccc(-c4ccc(S(=O)(=O)N[C@H](C(=O)O)C(C)C)cc4)cc3)cc12 [Example 103, N-[(4′-{[(4-Isopropoxy-1-benzofuran-2-yl)carbonyl]amino}-1,1′-biphenyl-4-yl)sulfonyl]-L-valine] |
| 0.7 | 1.5 |  | COc1ccc2oc(C(=O)Nc3ccc(-c4ccc(S(=O)(=O)N[C@H](C(=O)O)C(C)C)cc4)cc3)cc2c1 [Example 104, N-[(4′-{[(5-methoxy-1-benzofuran-2-yl)carbonyl]amino}-1,1′-biphenyl-4-yl)sulfonyl]-L-valine] |
|  | 2060 | 6.4 | Cc1c(C(=O)Nc2ccc(-c3ccc(S(=O)(=O)N[C@H](C(=O)O)C(C)C)cc3)cc2)oc2cccc(-c3ccoc3)c12 [Example 113, (S)-2-{4′-[(4-Furan-3-yl-3-methyl-benzofuran-2-carbonyl)-amino]-biphenyl-4-sulfonylamino}-3-methyl-butyric acid] |
| 0.8 | 47 |  | CC(C)[C@H](NS(=O)(=O)c1ccc(-c2ccc(NC(=O)c3nc4ccccc4o3)cc2)cc1)C(=O)O [Example 127, (S)-3-Methyl-2-{4′-[(benzooxazole-2-carbonyl)-amino]-biphenyl-4-sulfonylamino}-butyric acid] |
| 2.8 | 59.5 |  | Cc1cccc2oc(C(=O)Nc3ccc(-c4ccc(S(=O)(=O)N[C@H](C(=O)O)C(C)C)cc4)cc3)nc12 [Example 128, (S)-3-Methyl-2-{4′-[(4-methyl-benzooxazole-2-carbonyl)-amino]-biphenyl-4-sulfonylamino}-butyric acid] |
| 17 | 149 |  | CC(C)[C@H](NS(=O)(=O)c1ccc(-c2ccc(NC(=O)c3nc4cc(C(F)(F)F)ccc4s3)cc2)cc1)C(=O)O [Example 131, (S)-3-Methyl-2-{4′-[(5-trifluoromethyl-benzothiazole-2-carbonyl)-amino]-biphenyl-4-sulfonylamino}-butyric acid] |
| 89.3 | 1120 |  | CC(C)[C@@H](NS(=O)(=O)c1ccc(-c2ccc(OCc3nc4ccccc4n3C)cc2)cc1)C(=O)O [Example 138, D-3-Methyl-2-[4′-(1-methyl-1H-benzoimidazol-2-ylmethoxy)-biphenyl-4-sulfonylamino]-butyric acid] |
